Data taken from patent publication US9868692B2, “Compounds and compositions for intracellular delivery of therapeutic agents” (MODERNATX, Inc., priority 2015, dated 2018).

Assays:
[1] = Residual lipid level in liver of rats (UPLC-MS quantification); format: in vivo; conditions: rat; for % Lipid Remaining in liver, 48 h 2 mpk: assuming 300 g rat and 15 g liver; for concentration at 48 h: intravenous
Method: (§1) To pre-weighed tissues, Milli-Q water was added (900 μL water per 100 mg tissue). Tissues were homogenized using an Omni probe homogenizer until uniform. 50 μL of samples and matrix calibration standards were aliquoted into a 96-well plate. 50 μL of blank matrix for matrix blanks and control blanks were aliquoted. 400 μL IS spiking solution were manually added to all samples except matrix blanks. 400 μL of 50:50 ACN:IPA were manually added to matrix blanks. The plate was covered and the samples vortexed and centrifuged for 5 minutes at >3000 rpm. 200 μL of the samples were transferred into a clean 96-well plate for analysis. […] Detection was based on electrospray ionization (ESI) in positive mode using a Sciex API5500 Mass Spectrometer.
(§2) The expression of hEPO in rats intravenously administered a nanoparticle composition at a dose of 0.2 mpk or 2.0 mpk was measured at 6 hours. […] Liver and spleen levels represent the average values calculated for 3 rats in each group.
(§3) The expression of hEPO and lipid levels in the liver and spleen in rats intravenously administered a nanoparticle composition at a dose of 0.2 mpk was measured at various timepoints. […] Lipids were formulated according to the standard MC3 formulation described above.

[2] = Residual lipid level in spleen of rats (UPLC-MS quantification); format: in vivo; conditions: rat
Method: as §1, §2, §3

[3] = Particle size, polydispersity index (and zeta potential) of nanoparticle compositions, Zetasizer Nano ZS; format: physicochemical; conditions: Table 1A formulations
From the text: Nanoparticle compositions may be characterized by a variety of methods. For example, microscopy (e.g., transmission electron microscopy or scanning electron microscopy) may be used to examine the morphology and size distribution of a nanoparticle composition. Dynamic light scattering or potentiometry (e.g., potentiometric titrations) may be used to measure zeta potentials. Dynamic light scattering may also be utilized to determine particle sizes. Instruments such as the Zetasizer Nano ZS (Malvern Instruments Ltd, Malvern, Worcestershire, UK) may also be used to measure multiple characteristics of a nanoparticle composition, such as particle size, polydispersity index, and zeta potential.
A Zetasizer Nano ZS (Malvern Instruments Ltd, Malvern, Worcestershire, UK) can be used to determine the particle size, the polydispersity index (PDI) and the zeta potential of the nanoparticle compositions in 1×PBS in determining particle size and 15 mM PBS in determining zeta potential.

[4] = Encapsulation efficiency of RNA, QUANT-IT RIBOGREEN RNA assay; format: physicochemical; conditions: Table 1A formulations
From the text: The efficiency of encapsulation of a therapeutic and/or prophylactic describes the amount of therapeutic and/or prophylactic that is encapsulated or otherwise associated with a nanoparticle composition after preparation, relative to the initial amount provided. The encapsulation efficiency is desirably high (e.g., close to 100%). The encapsulation efficiency may be measured, for example, by comparing the amount of therapeutic and/or prophylactic in a solution containing the nanoparticle composition before and after breaking up the nanoparticle composition with one or more organic solvents or detergents. Fluorescence may be used to measure the amount of free therapeutic and/or prophylactic (e.g., RNA) in a solution. For the nanoparticle compositions described herein, the encapsulation efficiency of a therapeutic and/or prophylactic may be at least 50%, for example 50%, 55%, 60%, 65%, 70%, 75%, 80%, 85%, 90%, 91%, 92%, 93%, 94%, 95%, 96%, 97%, 98%, 99%, or 100%. In some embodiments, the encapsulation efficiency may be at least 80%. In certain embodiments, the encapsulation efficiency may be at least 90%.
For nanoparticle compositions including an RNA, a QUANT-IT™ RIBOGREEN® RNA assay (Invitrogen Corporation Carlsbad, Calif.) can be used to evaluate the encapsulation of an RNA by the nanoparticle composition. The samples are diluted to a concentration of approximately 5 μg/mL in a TE buffer solution (10 mM Tris-HCl, 1 mM EDTA, pH 7.5). 50 μL of the diluted samples are transferred to a polystyrene 96 well plate and either 50 μL of TE buffer or 50 μL of a 2% Triton X-100 solution is added to the wells. The plate is incubated at a temperature of 37° C. for 15 minutes. The RIBOGREEN® reagent is diluted 1:100 in TE buffer, and 100 μL of this solution is added to each well. The fluorescence intensity can be measured using a fluorescence plate reader (Wallac Victor 1420 Multilablel Counter; Perkin Elmer, Waltham, Mass.) at an excitation wavelength of, for example, about 480 nm and an emission wavelength of, for example, about 520 nm. The fluorescence values of the reagent blank are subtracted from that of each of the samples and the percentage of free RNA is determined by dividing the fluorescence intensity of the intact sample (without addition of Triton X-100) by the fluorescence value of the disrupted sample (caused by the addition of Triton X-100).

[5] = intravenous, 0.2 mg/kg, 0.2 mpk, 48 h, average of 3 rats, read-out: Spleen level
[6] = intravenous, 2 mg/kg, 2 mpk, 48 h, average of 3 rats, read-out: Spleen level
[7] = liver, 0.2 mg/kg, 0.2 mpk, 48 h, average of 3 rats, read-out: Liver level
[8] = liver, 2 mg/kg, 2 mpk, 48 h, average of 3 rats, read-out: Liver level
[9] = iv, 0.2 mg/kg, 0.2 mpk, 48 hours, read-out: Spleen level
[10] = iv, 2 mg/kg, 2 mpk, 48 hours, read-out: Spleen level
[11] = liver, iv, 0.2 mg/kg, 0.2 mpk, 48 hours, read-out: Liver level
[12] = liver, iv, 2 mg/kg, 2 mpk, 48 hours, read-out: Liver level

## CCCCCCCCCN(CCO)CCCCCCCC(=O)OC(CCCCCCCC)CCCCCCCC [Compound 3, Heptadecan-9-yl 8-((2-hydroxyethyl)(nonyl)amino)octanoate]
[1]; 2 mpk, 48 h
  % Lipid Remaining in liver, 48 h 2 mpk: 14%

## CCCCCC/C=C\COC(=O)CCCCCCCN(CCO)CCCCCCCC(=O)OC(CCCCCCCC)CCCCCCCC [Compound 24, Heptadecan-9-yl (Z)-8_((2-hydroxyethyl)(8-(non-2-en-1-yloxy)-8-oxooctyl)amino)octanoate]
[1]; 2 mpk, 48 h
  % Lipid Remaining in liver, 48 h 2 mpk: 0.016%

## CCCCCCCCCCCOC(=O)CCCCCN(CCO)CCCCCCCC(=O)OC(CCCCCCCC)CCCCCCCC [Compound 25, Heptadecan-9-yl 8-((2-hydroxyethyl)(6-oxo-6-(undecyloxy)hexyl)amino)octanoate]
[2]; iv, 0.2 mg/kg, 0.2 mpk, 0.25 h
  concentration at 0.25 h: 4040 ng/g
[2]; iv, 0.2 mg/kg, 0.2 mpk, 0.5 h
  concentration at 0.5 h: 6880 ng/g
[2]; iv, 0.2 mg/kg, 0.2 mpk, 1 h
  concentration at 1 h: 8590 ng/g
[2]; iv, 0.2 mg/kg, 0.2 mpk, 2 h
  concentration at 2 h: 13700 ng/g
[2]; iv, 0.2 mg/kg, 0.2 mpk, 4 h
  concentration at 4 h: 20400 ng/g
[2]; iv, 0.2 mg/kg, 0.2 mpk, 8 h
  concentration at 8 h: 10800 ng/g
[2]; iv, 0.2 mg/kg, 0.2 mpk, 24 h
  concentration at 24 h: 2020 ng/g
[2]; iv, 0.2 mg/kg, 0.2 mpk, 48 h, read-out: Lipid level in spleen
  concentration at 48 h: 1550 ng/g
[1]; liver, iv, 0.2 mg/kg, 0.2 mpk, 0.25 h
  concentration at 0.25 h: 12000 ng/g
[1]; liver, iv, 0.2 mg/kg, 0.2 mpk, 0.5 h
  concentration at 0.5 h: 16400 ng/g
[1]; liver, iv, 0.2 mg/kg, 0.2 mpk, 1 h
  concentration at 1 h: 17900 ng/g
[1]; liver, iv, 0.2 mg/kg, 0.2 mpk, 2 h
  concentration at 2 h: 11700 ng/g
[1]; liver, iv, 0.2 mg/kg, 0.2 mpk, 4 h
  concentration at 4 h: 6690 ng/g
[1]; liver, iv, 0.2 mg/kg, 0.2 mpk, 8 h
  concentration at 8 h: 2360 ng/g
[1]; liver, iv, 0.2 mg/kg, 0.2 mpk, 24 h
  concentration at 24 h: 199 ng/g
[1]; liver, iv, 0.2 mg/kg, 0.2 mpk, 48 h, read-out: Lipid level in liver
  concentration at 48 h: 12000 ng/g

## CCCCCCCCCOC(=O)CCCN(CCO)CCCCCCCC(=O)OC(CCCCCCCC)CCCCCCCC [Compound 26, Heptadecan-9-yl 8-((2-hydroxyethyl)(4-(nonyloxy)-4-oxobutyl)amino) octanoate]
[1]; 2 mpk, 48 h
  % Lipid Remaining in liver, 48 h 2 mpk: 20%

## CCCCCCCCC(CCCCCCCC)OC(=O)CCCCCCCN(CCO)CCCCCCCC(=O)OCC1CC1CCCCCC (centres unmarked) [Compound 28, Heptadecan-9-yl 8-((8-((2-hexylcyclopropyl)methoxy)-8-oxooctyl)(2-hydroxyethyl)amino)octanoate]
[2]; [5]
  concentration at 48 h: 268 ng/g
[2]; [6]
  concentration at 48 h: 551 ng/g
[1]; [7]
  concentration at 48 h: 49.6 ng/g
[1]; [8]
  concentration at 48 h: 665 ng/g

## CCCCCCCCCOC(=O)CCCCCCCN(CCO)CCCCCCCOC(=O)C(CCCCCCCC)CCCCCCCC [Compound 30, 7-((2-Hydroxyethyl)(8-(nonyloxy)-8-oxooctyl)amino)heptyl 2-octyldecanoate]
[1]; 2 mpk, 48 h
  % Lipid Remaining in liver, 48 h 2 mpk: <0.01%

## CCCCCCCCCOC(=O)CCCCCCCN(CCO)CCCCCCCC(=O)OC(CCCCC)CCCCCCCC (centres unmarked) [Compound 33, nonyl 8-((2-hydroxyethyl)(8-oxo-8-(tetradecan-6-yloxy)octyl)amino) octanoate]
[2]; [5]
  concentration at 48 h: 115 ng/g
[2]; [6]
  concentration at 48 h: 287 ng/g
[1]; [8]
  concentration at 48 h: 103 ng/g

## CCCCCCCCC(C)OC(=O)CCCCCCCN(CCO)CCCCCCCC(=O)OC(CCCCCCCC)CCCCCCCC (centres unmarked) [Compound 48, decan-2-yl 8-((8-(heptadecan-9-yloxy)-8-oxooctyl)(2-hydroxyethyl)amino)octanoate]
[2]; [9]
  concentration at 48 h: 0.31
[2]; [10]
  concentration at 48 h: 0.21
[1]; [11]
  concentration at 48 h: 5450 ng/g
[1]; [12]
  concentration at 48 h: 34500 ng/g

## CCCCCCCCC(CCC)OC(=O)CCCCCCCN(CCO)CCCCCCCC(=O)OC(CCCCCCCC)CCCCCCCC (centres unmarked) [Compound 50, dodecan-4-yl 8-((8-(heptadecan-9-yloxy)-8-oxooctyl)(2-hydroxyethyl)amino)octanoate]
[2]; [9]
  concentration at 48 h: 0.22
[2]; [10]
  concentration at 48 h: 0.17
[1]; [11]
  concentration at 48 h: 5820 ng/g
[1]; [12]
  concentration at 48 h: 79200 ng/g

## CCCCCCCCC(CCCCCCCC)OC(=O)CCCCCCCN(CCO)CCCC(=O)OCCCCCC [Compound 53, heptadecan-9-yl 8-((4-(hexyloxy)-4-oxobutyl)(2-hydroxyethyl)amino) octanoate]
[2]; [5]
  concentration at 48 h: 1180 ng/g
[2]; [6]
  concentration at 48 h: 201000 ng/g
[1]; [7]
  concentration at 48 h: 4810 ng/g
[1]; [8]
  concentration at 48 h: 47000 ng/g

## CCCCCCCCC(CCCCCCCC)OC(=O)CCCCCCCN(CCO)CCCC(=O)OCCCCCCC [Compound 54, heptadecan-9-yl 8-((4-(heptyloxy)-4-oxobutyl)(2-hydroxyethyl)amino) octanoate]
[2]; [5]
  concentration at 48 h: 6360 ng/g
[2]; [6]
  concentration at 48 h: 49400 ng/g
[1]; [7]
  concentration at 48 h: 6070 ng/g
[1]; [8]
  concentration at 48 h: 56100 ng/g

## CCCC/C=C\CCC(CC/C=C\CCCC)OC(=O)CCCCCCCN(CCO)CCCCCC(=O)OCCCCCCCCCCC [Compound 61, (5Z,12Z)-heptadeca-5,12-dien-9-yl 8-((2-hydroxyethyl)(6-oxo-6-(undecyloxy)hexyl)amino)octanoate]
[3]
  PDI: 0.11
[4]
  EE (%): 97.2%

## CCCCCCCCC(CCCCCCCC)OC(=O)CCCCCCCN(CCO)CCCC(=O)OC(CCCCC)CCCCCCCC (centres unmarked) [Compound 71, Heptadecan-9-yl 8-((2-hydroxyethyl)(4-oxo-4-(tetradecan-6-yloxy)butyl)amino)octanoate]
[3]
  PDI: 0.11

## CCCCCCCCCOC(=O)CCCCCCCN(CCCCCCCC(=O)OC(CCCCCCCC)CCCCCCCC)CCCNC(=O)NC [Compound 112, Heptadecan-9-yl 8-((3-(3-methylureido)propyl)(8-(nonyloxy)-8-oxooctyl)amino)octanoate]
[3]
  PDI: 0.12

## CCCCCCCCCOC(=O)CCCCCCCN(CCO)CCCCCCC(=O)OCC(CCCCCCCC)CCCCCCCC [Compound 143, Nonyl 8-((2-hydroxyethyl)(7-((2-octyldecyl)oxy)-7-oxoheptyl)amino)octanoate]
[3]
  PDI: 0.19

## CCCCCCCCCOC(=O)CCCCCCCN(CCCCCCCC(=O)OC(CCCCCCCC)CCCCCCCC)CCCN/C(=N/C#N)N(C)C [Compound 168, Heptadecan-9-yl (Z)-8-((3-(2-cyano-3,3-dimethylguanidino)propyl)(8-(nonyloxy)-8-oxooctyl)amino)octanoate]
[3]
  PDI: 0.1

## CCCCCCCCCOC(=O)CCCCCCCN(CCCCCCCC(=O)OC(CCCCCCCC)CCCCCCCC)CCCOC(=O)NC [Compound 175, Heptadecan-9-yl 8-((3-((methylcarbamoyl)oxy)propyl)(8-(nonyloxy)-8-oxooctyl)amino)octanoate]
[3]
  PDI: 0.2
